Data from ChEMBL document CHEMBL1201862, “PubChem BioAssay data set” (2004).
Active and inactive are the calls of the source.

Columns and labels:
[1] = protection from phage-mediated lysis, alamar blue read-out – E. coli UTI89, K1F phage, bacterial capsule biogenesis inhibitors (AID 488966); type: functional
[2] = test system: Streptococcus sp. 'group A'; assay: Streptococcus pyogenes SK(-)GAS viability under kanamycin – luminescence, BacTiterGlo, confirmation, counter-screen for streptokinase expression inhibitor project, dose response (AID 1900); type: functional, organism-based
Streptococcus = assay: GAS UMAA2166 growth inhibition – luminescence, BacTiterGlo, counter-screen for streptokinase expression inhibitor project, dose response (AID 1915); type: functional, organism-based;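 note: potency for reduction of bacterial viability or growth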
Caspase-3 = target: T1, Caspase-3 (Homo sapiens, UniProt P42574); assay: activation of caspase-3 zymogen – biochemical, absorbance, dose response (AID 489014)
T1 sequence (P42574 whole entry): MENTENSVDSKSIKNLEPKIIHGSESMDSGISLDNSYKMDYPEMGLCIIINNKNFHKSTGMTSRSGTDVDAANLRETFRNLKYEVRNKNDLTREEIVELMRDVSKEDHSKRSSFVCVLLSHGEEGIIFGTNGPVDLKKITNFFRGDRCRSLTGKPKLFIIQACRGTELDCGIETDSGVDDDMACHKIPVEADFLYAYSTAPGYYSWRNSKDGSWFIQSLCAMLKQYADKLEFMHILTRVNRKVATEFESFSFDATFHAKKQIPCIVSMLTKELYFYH

Caspase-7 = target: T2, Caspase-7 (Homo sapiens, UniProt P55210); assay: activation of caspase-7 zymogen – biochemical, absorbance, counter-screen for procaspase-3 activator project, dose response (AID 489013)
T2 sequence (P55210 whole entry): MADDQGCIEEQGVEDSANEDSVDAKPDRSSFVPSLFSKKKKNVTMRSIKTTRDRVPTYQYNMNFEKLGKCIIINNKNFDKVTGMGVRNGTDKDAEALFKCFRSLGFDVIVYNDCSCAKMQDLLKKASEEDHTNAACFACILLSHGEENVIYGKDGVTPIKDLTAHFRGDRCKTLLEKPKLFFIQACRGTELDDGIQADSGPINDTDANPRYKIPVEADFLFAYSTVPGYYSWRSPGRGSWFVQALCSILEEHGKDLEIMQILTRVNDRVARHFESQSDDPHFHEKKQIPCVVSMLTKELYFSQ

[3] = target: T3, Tyrosine-protein phosphatase non-receptor type 7 (Homo sapiens, UniProt P35236); assay: redox-active compounds inhibiting HePTP phosphatase – biochemical, fluorescence, mechanism study (AID 2068); type: functional
T3 sequence (P35236 whole entry): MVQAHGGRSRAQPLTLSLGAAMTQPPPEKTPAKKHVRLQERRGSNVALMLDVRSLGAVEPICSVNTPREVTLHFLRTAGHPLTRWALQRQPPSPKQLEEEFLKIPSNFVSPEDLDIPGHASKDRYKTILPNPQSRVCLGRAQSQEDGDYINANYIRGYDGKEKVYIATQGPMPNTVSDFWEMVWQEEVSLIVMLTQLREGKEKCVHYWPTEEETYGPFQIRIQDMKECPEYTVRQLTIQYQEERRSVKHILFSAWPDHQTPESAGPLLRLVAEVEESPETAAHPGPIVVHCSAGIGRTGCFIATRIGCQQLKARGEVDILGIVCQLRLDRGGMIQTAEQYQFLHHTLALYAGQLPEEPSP

Integrin alpha-L = Integrin alpha-L (Mus musculus, UniProt P24063); assay: modulators of CD8 T cell-vesicle binding, dose response, powder samples, mouse 2C CD8+ cells (AID 504565); type: functional
Integrin alpha-L, sequence (P24063 whole entry): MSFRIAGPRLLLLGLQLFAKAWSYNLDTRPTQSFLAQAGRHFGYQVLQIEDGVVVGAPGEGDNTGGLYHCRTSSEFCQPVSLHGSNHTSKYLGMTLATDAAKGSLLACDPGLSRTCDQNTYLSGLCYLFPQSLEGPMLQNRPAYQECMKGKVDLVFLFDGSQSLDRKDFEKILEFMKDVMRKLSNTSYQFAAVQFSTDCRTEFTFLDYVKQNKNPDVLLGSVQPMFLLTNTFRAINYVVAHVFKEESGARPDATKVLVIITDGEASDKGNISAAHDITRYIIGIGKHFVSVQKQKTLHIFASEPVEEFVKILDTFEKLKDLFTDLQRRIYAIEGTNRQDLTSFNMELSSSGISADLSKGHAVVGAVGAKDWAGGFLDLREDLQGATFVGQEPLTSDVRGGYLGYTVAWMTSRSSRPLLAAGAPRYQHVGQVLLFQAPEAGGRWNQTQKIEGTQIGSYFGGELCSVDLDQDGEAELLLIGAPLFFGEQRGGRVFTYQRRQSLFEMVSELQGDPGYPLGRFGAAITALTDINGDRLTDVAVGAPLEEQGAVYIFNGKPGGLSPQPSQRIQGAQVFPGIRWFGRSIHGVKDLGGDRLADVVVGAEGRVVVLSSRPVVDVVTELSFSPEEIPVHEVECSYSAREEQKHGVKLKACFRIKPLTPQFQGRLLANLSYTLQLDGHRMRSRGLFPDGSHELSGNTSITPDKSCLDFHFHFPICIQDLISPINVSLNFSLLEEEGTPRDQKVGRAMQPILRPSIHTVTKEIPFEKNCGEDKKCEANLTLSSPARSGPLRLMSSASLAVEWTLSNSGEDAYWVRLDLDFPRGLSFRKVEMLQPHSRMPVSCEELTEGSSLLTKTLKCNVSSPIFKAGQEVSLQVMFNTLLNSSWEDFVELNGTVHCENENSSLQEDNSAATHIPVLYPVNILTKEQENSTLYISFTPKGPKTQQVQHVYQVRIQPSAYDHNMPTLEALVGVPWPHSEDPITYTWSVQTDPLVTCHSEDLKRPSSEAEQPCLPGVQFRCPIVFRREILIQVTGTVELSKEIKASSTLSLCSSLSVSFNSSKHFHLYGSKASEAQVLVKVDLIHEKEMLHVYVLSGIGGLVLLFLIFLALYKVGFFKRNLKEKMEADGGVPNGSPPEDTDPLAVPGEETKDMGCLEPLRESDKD

T-cell = assay: loss of vesicle association with mouse CD8+ T cells – mouse 2C CD8+ T cells, flow cytometry, dose response (AID 485284); type: functional
[4] = target: 1-acylglycerol-3-phosphate O-acyltransferase ABHD5/Perilipin-5 (Homo sapiens, UniProt Q00G26+Q8WTS1); assay: Luminescence-based biochemical high throughput dose response assay for inhibitors of the interaction of the lipase co-activator protein, abhydrolase domain containing 5 (ABHD5) with perilipin-5 (MLDP; PLIN5) (2K validation set). [Related pubchem assays (depositor defined):AID493035, AID493241]
1-acylglycerol-3-phosphate O-acyltransferase ABHD5/Perilipin-5, sequence (Q00G26 whole entry, the tested form may be a part): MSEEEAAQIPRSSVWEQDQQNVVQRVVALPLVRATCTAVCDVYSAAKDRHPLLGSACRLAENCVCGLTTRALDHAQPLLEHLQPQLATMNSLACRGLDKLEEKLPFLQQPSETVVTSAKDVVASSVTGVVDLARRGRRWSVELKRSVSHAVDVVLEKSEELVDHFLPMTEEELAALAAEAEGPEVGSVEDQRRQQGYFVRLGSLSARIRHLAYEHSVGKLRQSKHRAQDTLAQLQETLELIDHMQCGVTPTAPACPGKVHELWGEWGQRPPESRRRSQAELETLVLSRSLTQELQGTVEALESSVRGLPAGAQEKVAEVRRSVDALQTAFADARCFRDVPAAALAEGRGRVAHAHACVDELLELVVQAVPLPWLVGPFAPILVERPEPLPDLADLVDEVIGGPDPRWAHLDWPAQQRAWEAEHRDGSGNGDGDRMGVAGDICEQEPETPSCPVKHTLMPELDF
1-acylglycerol-3-phosphate O-acyltransferase ABHD5/Perilipin-5, sequence (Q8WTS1 whole entry, the tested form may be a part): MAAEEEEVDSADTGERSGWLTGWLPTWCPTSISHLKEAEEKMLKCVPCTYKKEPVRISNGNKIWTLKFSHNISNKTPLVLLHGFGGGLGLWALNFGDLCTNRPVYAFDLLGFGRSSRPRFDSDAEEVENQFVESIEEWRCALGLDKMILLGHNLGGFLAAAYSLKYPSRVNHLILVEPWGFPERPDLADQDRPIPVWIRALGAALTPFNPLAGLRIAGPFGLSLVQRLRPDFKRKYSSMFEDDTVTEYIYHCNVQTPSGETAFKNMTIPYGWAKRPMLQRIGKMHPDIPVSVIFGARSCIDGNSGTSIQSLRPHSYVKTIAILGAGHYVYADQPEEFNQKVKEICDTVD

Perilipin-1/ABHD5 = Perilipin-1/ABHD5 (Homo sapiens, UniProt O60240+Q8WTS1); assay: Luminescence-based biochemical high throughput dose response assay for inhibitors of the interaction of the lipase co-activator protein, abhydrolase domain containing 5 (ABHD5) with perilipin-1 (PLIN1) (2K validation set). [Related pubchem assays (depositor defined):AID493027, AID493057]
Perilipin-1/ABHD5, sequence (Q8WTS1 whole entry, the tested form may be a part): as above
Perilipin-1/ABHD5, sequence (O60240 whole entry, the tested form may be a part): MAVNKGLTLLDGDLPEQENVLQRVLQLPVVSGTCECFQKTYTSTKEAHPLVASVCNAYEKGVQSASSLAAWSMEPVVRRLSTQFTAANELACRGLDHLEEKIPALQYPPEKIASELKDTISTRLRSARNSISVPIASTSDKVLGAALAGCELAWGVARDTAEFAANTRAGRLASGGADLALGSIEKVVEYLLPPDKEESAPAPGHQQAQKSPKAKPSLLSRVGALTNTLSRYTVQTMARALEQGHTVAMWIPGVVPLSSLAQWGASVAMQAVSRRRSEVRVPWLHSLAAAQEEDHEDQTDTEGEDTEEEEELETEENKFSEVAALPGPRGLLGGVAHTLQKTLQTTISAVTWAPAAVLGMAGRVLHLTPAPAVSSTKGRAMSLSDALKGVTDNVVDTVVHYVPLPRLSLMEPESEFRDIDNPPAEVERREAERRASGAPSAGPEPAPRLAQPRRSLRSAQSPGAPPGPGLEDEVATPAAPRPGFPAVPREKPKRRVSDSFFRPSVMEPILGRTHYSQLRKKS

Coagulation factor XII = target: T4, Coagulation factor XII (Homo sapiens, UniProt P00748); assay: activated coagulation factor XII inhibitor potency, concentration-effect curve, cell-free (AID 716); type: functional
T4 sequence (P00748 whole entry): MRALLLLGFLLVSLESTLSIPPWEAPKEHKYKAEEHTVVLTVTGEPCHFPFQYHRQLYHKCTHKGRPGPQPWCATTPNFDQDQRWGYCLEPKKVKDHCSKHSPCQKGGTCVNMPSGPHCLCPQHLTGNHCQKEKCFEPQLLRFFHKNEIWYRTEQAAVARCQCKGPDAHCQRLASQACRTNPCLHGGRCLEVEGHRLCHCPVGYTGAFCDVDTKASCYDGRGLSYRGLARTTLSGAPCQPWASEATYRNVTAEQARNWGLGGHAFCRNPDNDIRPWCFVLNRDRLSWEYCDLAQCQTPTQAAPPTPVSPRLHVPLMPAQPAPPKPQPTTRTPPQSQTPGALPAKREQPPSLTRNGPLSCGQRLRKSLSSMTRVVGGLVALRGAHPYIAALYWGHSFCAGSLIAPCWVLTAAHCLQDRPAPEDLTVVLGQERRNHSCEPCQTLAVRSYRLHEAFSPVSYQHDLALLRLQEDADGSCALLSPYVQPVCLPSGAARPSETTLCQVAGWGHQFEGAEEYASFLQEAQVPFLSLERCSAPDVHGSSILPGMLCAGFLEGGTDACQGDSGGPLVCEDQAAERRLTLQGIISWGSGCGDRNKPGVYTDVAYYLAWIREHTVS

## Cc1cc(C(=O)NN=Cc2ccc(OC(=O)c3ccco3)cc2)c(C)o1
[1]
  IC50: > 150 µM (active)

## O=C1C2C(c3ccccc3)=NN(c3ccccc3)C2C(=O)N1c1ccccc1 (stereo unspecified)
[2]
  EC50: 1.02 µM (active)
Streptococcus
  EC50: 5.11 µM (active)
Caspase-3
  EC50: > 85.3 µM (inactive)
Caspase-7
  EC50: > 85.3 µM (inactive)

## CNC(=O)Nc1ccc2nc(-c3ccco3)c(-c3ccco3)nc2c1
[3]
  IC50: 0.816 µM (active)

## O=C(O)C1CCC(Cn2c(SCc3cc(=O)n4cc(Cl)ccc4n3)nc3ccsc3c2=O)CC1 (stereo unspecified)
Integrin alpha-L
  EC50: 51.9 µM (inactive)
T-cell
  EC50: 18.2 µM (active)

## COc1ccc(O)c(C(=O)/C=C/c2cc3ccccc3o2)c1
[4]
  IC50: 4.85 µM (active)
Perilipin-1/ABHD5
  IC50: 4.8 µM (active)

## COc1ccc(C(=O)c2c(C)oc3ccc(O)c(CN4CCOCC4)c23)cc1
Coagulation factor XII
  IC50: > 50 µM (inactive)
